Where two headings read alike, the source gives them in different places.
How the values were obtained:
H3122 cells = experiment: Cytotoxicity in non-small cell lung cancer cell line H3122 (SRB); format: cell-based, human; details: H3122 cells, three days, SRB
Procedure: Particularly, 4,000 H3122 cells containing ALK enzyme were distributed in each well of a 96 well plate together with 100 μl of DMEM (Dulbecco's Modified Eagle's Medium). One day later, the compound of the present invention was added to each well at different concentrations of […]. DMSO (dimethylsulfoxide) was added to the well that was not loaded with the compound by the same amount as the compound. Three days after the addition of the compound, DMEM was eliminated. 10% TCA (trichloroacetic acid) was added to fix the cells. The wells were washed with running water three times and the live cells were stained with SRB solution (1 sulphorodamine B). Then, OD was measured to calculate the population of the live cells.

Ba/F3 EML4-ALK WT cells = experiment: cells; format: cell-based, rodent; details: read-out: Ba/F3 EML-ALK WT (IC50 μM)
ALK WT = ALK WT (Homo sapiens (Human), UniProt Q9UM73); details: read-out: ALK WT (IC50 μM); ALK enzyme, HTRF
Chain of ALK WT (Q9UM73 19-1620): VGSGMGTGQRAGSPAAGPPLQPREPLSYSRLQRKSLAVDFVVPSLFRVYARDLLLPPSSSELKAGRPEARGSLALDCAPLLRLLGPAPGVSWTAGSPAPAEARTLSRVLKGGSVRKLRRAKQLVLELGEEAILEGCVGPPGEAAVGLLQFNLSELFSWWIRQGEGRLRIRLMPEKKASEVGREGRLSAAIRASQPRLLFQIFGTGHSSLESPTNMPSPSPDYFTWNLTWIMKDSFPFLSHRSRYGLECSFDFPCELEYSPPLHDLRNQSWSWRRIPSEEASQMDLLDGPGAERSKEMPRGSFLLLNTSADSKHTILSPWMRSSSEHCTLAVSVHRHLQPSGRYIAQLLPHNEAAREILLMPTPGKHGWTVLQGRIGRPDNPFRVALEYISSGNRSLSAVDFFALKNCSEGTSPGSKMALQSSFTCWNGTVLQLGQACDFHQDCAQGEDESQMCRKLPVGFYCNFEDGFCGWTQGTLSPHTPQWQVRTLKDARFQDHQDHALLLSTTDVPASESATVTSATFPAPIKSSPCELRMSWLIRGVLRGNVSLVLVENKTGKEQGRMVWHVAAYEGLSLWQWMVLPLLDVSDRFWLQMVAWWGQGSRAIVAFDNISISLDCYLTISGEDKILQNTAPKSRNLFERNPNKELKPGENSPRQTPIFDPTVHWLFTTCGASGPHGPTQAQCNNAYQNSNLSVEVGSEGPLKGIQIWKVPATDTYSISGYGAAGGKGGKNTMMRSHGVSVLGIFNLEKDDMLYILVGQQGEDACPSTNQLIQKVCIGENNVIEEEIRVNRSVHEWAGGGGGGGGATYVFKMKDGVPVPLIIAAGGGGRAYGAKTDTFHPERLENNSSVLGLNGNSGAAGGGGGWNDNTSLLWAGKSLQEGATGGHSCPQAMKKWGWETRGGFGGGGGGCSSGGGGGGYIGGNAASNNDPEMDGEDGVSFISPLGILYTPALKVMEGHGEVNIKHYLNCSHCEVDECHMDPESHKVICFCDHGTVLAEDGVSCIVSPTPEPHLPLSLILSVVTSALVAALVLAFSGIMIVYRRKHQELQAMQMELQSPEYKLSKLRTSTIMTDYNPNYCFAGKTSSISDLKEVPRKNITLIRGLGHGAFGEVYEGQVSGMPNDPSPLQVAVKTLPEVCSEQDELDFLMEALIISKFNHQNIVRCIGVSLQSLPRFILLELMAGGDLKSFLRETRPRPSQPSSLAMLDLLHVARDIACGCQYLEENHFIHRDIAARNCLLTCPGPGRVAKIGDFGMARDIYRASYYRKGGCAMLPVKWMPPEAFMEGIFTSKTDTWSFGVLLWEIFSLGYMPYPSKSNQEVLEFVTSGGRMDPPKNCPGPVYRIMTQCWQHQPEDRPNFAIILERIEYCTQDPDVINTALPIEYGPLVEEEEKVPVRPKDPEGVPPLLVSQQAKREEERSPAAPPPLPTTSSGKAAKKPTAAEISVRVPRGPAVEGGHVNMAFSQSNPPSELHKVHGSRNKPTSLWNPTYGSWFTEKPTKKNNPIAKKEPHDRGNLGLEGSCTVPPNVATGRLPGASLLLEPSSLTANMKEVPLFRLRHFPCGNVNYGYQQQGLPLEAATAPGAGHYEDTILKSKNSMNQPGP
Procedure: To measure the activity to inhibit ALK, each of the compounds prepared in examples listed in table 2 (2 μl) was loaded in a 384 well plate. Then, each of the compounds was mixed with anaplastic lymphoma kinase (ALK) enzyme (1 μl) and biotin conjugated peptide substrate (2 μl), followed by culture for 15 minutes. ATP solution (5 μl) was added thereto, followed by kinase reaction at room temperature for 30 minutes. […] Upon completion of the reaction, one hour culture was performed, followed by analysis using homogeneous time-resolved fluorescence (HTRF, Cisbio).

H2228 cells [1] = details: human, 3 days
H2228 cells [2] = experiment: cells; details: Homo sapiens, NCI-H2228, 72 h, read-out: Cytotoxicity H2228 (GI50 μM), H2228 cells, three days, SRB
[3] = test system: H3122 induced lung cancer; experiment: In vivo xenograft evaluation for H3122 induced lung cancer; parameters: species or system nude mice (BALB/c nu/nu); details: H3122 xenograft in nude mice, orally administered q.d.×14, FIG. 1
From the text: The nude mice (BALB/c nu/nu, female) used in this experiment were purchased from Charles River Japan, Inc. and raised and tested under SPF (Specific Pathogen Free) control. The human non-small cell lung cancer cell line H3122 maintained by Korea Research Institute of Chemical Technology was used in this experiment.
The female nude mice adapted to the laboratory were implanted with cancer. Particularly, H3122 cells grown to the appropriate size for passage were cut into 3×3×3 mm^3, which was transplanted (s.c.) under the right side of the nude mouse. When the size of the implanted cancer reached about 200 mm^3, administration of the compound of example 58 was started; this was the first day (day 1). For the control, 20% PEG 400+3% Tween 80 in DDW was orally administered. For the experimental group (7 mice/group), the compound was dissolved in the same solvent of the control, which was orally administered 14 times in total (q.d.×14). The size of the cancer was measured every 2-3 days after the administration using a caliper and the diameters (long diameter (a), short diameter (b)) of the cancer were measured. The size of the cancer (volume, V) was calculated according to mathematical formula 1. Volume (mm^3)=a×b^2/2 Mathematical Formula 1
(In the mathematical formula 1,
a represents the horizontal length of the cancer; and
b represents the vertical short length of the cancer).

SMILES | GI50 (H3122 cells; Homo sapiens, NCI-H3122, 72 h) [µM] | IC50 (Ba/F3 EML4-ALK WT cells; Ba/F3 EML4-ALK) [µM] | IC50 (ALK WT) [µM] | other results
COc1cc(C(C)(C)CN(C)C)c(C)cc1Nc1ncc(Cl)c(Nc2ccccc2S(=O)(=O)C(C)C)n1 [Example 65, 5-chloro-N2-(4-(1-(dimethylamino)-2-methylpropane-2-yl)-2-methoxy-5-methylphenyl)-N4-(2-(isopropylsulfonyl)phenyl)pyrimidine-2,4-diamine] | 0.026 | 0.014 | 0.0022 | –
COC(=O)CCNCCc1ccc(OC)c(Nc2ncc(Cl)c(Nc3ccccc3S(=O)(=O)C(C)C)n2)c1 [Example 24, methyl 3-(3-(5-chloro-4-(2-(isopropylsulfonyl)phenylamino)pyrimidine-2-ylamino)-4-methoxyphenethylamino)propanoate] | ≤ 0.1 | – | – | GI50 (H3122 cells): 0.09 µM; GI50 (H2228 cells [1]): 0.66 µM; GI50 (H2228 cells [2]): ≤ 1 µM
COc1cc(CCN)c(C)cc1Nc1ncc(Cl)c(Nc2ccccc2S(=O)(=O)C(C)C)n1 [Example 55, N2-(4-(2-aminoethyl)-2-methoxy-5-methylphenyl)-5-chloro-N4-(2-(isopropylsulfonyl)phenyl)pyrimidine-2,4-diamine] | 0.06 | – | 0.0027 | –
COc1cc(CCN(C)C)c(C)cc1Nc1ncc(Cl)c(Nc2ccccc2S(=O)(=O)C(C)C)n1 [Example 58, 5-chloro-N2-(4-(2-(dimethylamino)ethyl)-2-methoxy-5-methylphenyl)-N4-(2-(isopropylsulfonyl)phenyl)pyrimidine-2,4-diamine] | 0.013 | 0.01 | 0.0014 | size of the cancer (volume) [3]: the effect of inhibiting cancer size was excellent, similar to LDK378
COc1cc(C(C)(C)N(C)C)c(C)cc1Nc1ncc(Cl)c(Nc2ccccc2S(=O)(=O)C(C)C)n1 [Example 66, 5-chloro-N2-(4-(2-(dimethylamino)propane-2-yl)-2-methoxy-5-methylphenyl)-N4-(2-(isopropylsulfonyl)phenyl)pyrimidine-2,4-diamine] | 0.035 | – | 0.0028 | –
CNCCc1cc(OC)c(Nc2ncc(Cl)c(Nc3ccccc3S(=O)(=O)C(C)C)n2)cc1C [Example 63, 5-chloro-N4-(2-(isopropylsulfonyl)phenyl)-N2-(2-methoxy-5-methyl-4-(2-(methylamino)ethyl)phenyl)pyrimidine-2,4-diamine] | 0.02 | – | 0.0015 | –
COc1cc(C(C)(C)NC=O)c(C)cc1Nc1ncc(Cl)c(Nc2ccccc2S(=O)(=O)C(C)C)n1 [Example 61, N-(2-(4-((5-chloro-4-((2-(isopropylsulfonyl)phenyl)amino)pyrimidine-2-yl)amino)-5-methoxy-2-methylphenyl)propane-2-yl)formamide] | 0.052 | 0.024 | – | –
COc1cc(CC#N)c(C)cc1Nc1ncc(Cl)c(Nc2ccccc2S(=O)(=O)C(C)C)n1 [Example 53, 2-(4-((5-chloro-4-((2-(isopropylsulfonyl)phenyl)amino)pyrimidine-2-yl)amino)-5-methoxy-2-methylphenyl)acetonitrile] | 0.074 | ≤ 0.1 | – | IC50 (Ba/F3 EML4-ALK WT cells): 0.061 µM
Cc1cc(Nc2ncc(Cl)c(Nc3ccccc3S(=O)(=O)C(C)C)n2)c(OC(C)C)cc1C1CCNCC1 [LDK378, Ceritinib, reference compound] | – | – | – | size of the cancer (volume) [3]: the effect of inhibiting cancer size was excellent, similar to LDK378
C=C(C)c1cc(OCC)c(Nc2ncc(Cl)c(Nc3ccccc3S(=O)(=O)C(C)C)n2)cc1CCN [Example 74, N2-(5-(2-aminoethyl)-2-ethoxy-4-(prop-1-ene-2-yl)phenyl)-5-chloro-N4-(2-(isopropylsulfonyl)phenyl)pyrimidine-2,4-diamine] | 0.77 | 0.36 | – | –
COc1ccc(CCN(CCO)CCO)cc1Nc1ncc(Cl)c(Nc2ccccc2S(=O)(=O)C(C)C)n1 [Example 39, 2,2′-(3-(5-chloro-4-(2-(isopropylsulfonyl)phenylamino)pyrimidine-2-ylamino)-4-methoxyphenethylazeindiyl)diethanol] | 0.93 | – | – | GI50 (H2228 cells [1]): 0.87 µM; GI50 (H2228 cells [2]): ≤ 1 µM
CNC(C)(C)c1cc(OC)c(Nc2ncc(Cl)c(Nc3ccccc3S(=O)(=O)C(C)C)n2)cc1C [Example 64, 5-chloro-N4-(2-(isopropylsulfonyl)phenyl)-N2-(2-methoxy-5-methyl-4-(2-(methylamino)propane-2-yl)phenyl)pyrimidine-2,4-diamine] | 0.029 | 0.015 | 0.0012 | –
COc1cc(C(C)(C)CNC=O)c(C)cc1Nc1ncc(Cl)c(Nc2ccccc2S(=O)(=O)C(C)C)n1 [Example 59, N-(2-(4-((5-chloro-4-((2-(isopropylsulfonyl)phenyl)amino)pyrimidine-2-yl)amino)-5-methoxy-2-methylphenyl)-2-methylpropyl)formamide] | 0.063 | – | 0.0078 | –
COc1cc(CN(C)C)c(C)cc1Nc1ncc(Cl)c(Nc2ccccc2S(=O)(=O)C(C)C)n1 [Example 70, 5-chloro-N2-(4-((dimethylamino)methyl)-2-methoxy-5-methylphenyl)-N4-(2-(isopropylsulfonyl)phenyl)pyrimidine-2,4-diamine] | 0.037 | 0.021 | – | –
CNCc1cc(OC)c(Nc2ncc(Cl)c(Nc3ccccc3S(=O)(=O)C(C)C)n2)cc1C [Example 72, 5-chloro-N4-(2-(isopropylsulfonyl)phenyl)-N2-(2-methoxy-5-methyl-4-((methylamino)methyl)phenyl)pyrimidine-2,4-diamine] | 0.025 | 0.015 | 0.00174 | –
COc1cc(C(C)(C)CN)c(C)cc1Nc1ncc(Cl)c(Nc2ccccc2S(=O)(=O)C(C)C)n1 [Example 56, N2-(4-(1-amino-2-methylpropane-2-yl)-2-methoxy-5-methylphenyl)-5-chloro-N4-(2-(isopropylsulfonyl)phenyl)pyrimidine-2,4-diamine] | 0.053 | – | 0.0049 | –
COc1cc(CCNC=O)c(C)cc1Nc1ncc(Cl)c(Nc2ccccc2S(=O)(=O)C(C)C)n1 [Example 62, N-(4-((5-chloro-4-((2-(isopropylsulfonyl)phenyl)amino)pyrimidine-2-yl)amino)-5-methoxy-2-methylphenethyl)formamide] | 0.068 | – | 0.004 | –
CNCC(C)(C)c1cc(OC)c(Nc2ncc(Cl)c(Nc3ccccc3S(=O)(=O)C(C)C)n2)cc1C [Example 60, 5-chloro-N4-(2-(isopropylsulfonyl)phenyl)-N2-(2-methoxy-5-methyl-4-(2-methyl-1-(methylamino)propane-2-yl)phenyl)pyrimidine-2,4-diamine] | 0.041 | 0.019 | 0.0015 | –
